Results as given in patent publication US20250090614A1, “COMPOSITIONS AND METHODS FOR IMPROVING LUNG FUNCTION” (priority 2023, published 2025).

Assays:
Format in all cases: in vivo, mouse
Settings in all cases: aged C57BL/6 mice, 25 mg/kg p.o. each substance, 90 days
[1] = test system: Laminin; assay: Laminin ELISA in lung tissue supernatant of aged mice
Protocol: The experiments were performed in old C57b1/6 mice (28-30 weeks). Table 1 discloses the groups of mice used for the experimentation. C57BL/6 mice were bred and naturally aged in a pathogen-free colony. Mice were group-housed six per cage for the treatment regimen and maintained on a 12-hr light-dark schedule with ad libitum access to food and water. All experiments were designed according to the principles of animal use for gerontological research (Miller, R. A., & Nadon, N. L. (2000). Principles of animal use for gerontological research. Journals of Gerontology. Series A, Biological Sciences and Medical Sciences, 55, B117-B123) [table] The above test substances were administered to the mice for a period of 90 days. Rapamycin was used as a positive control. After 90 days of administration experiments were performed to assess the respiratory muscle function, anatomical changes, cellular senescence and immunological changes. Hyperinflation of the lungs may occur with ageing along with destruction of lung parenchyma or loss of supporting structures within the lung parenchyma (Gillooly M, Lamb D. Airspace size in lungs of lifelong non-smokers: effect of age and sex. Thorax. 1993; 48:39-43). […] Laminin was measured using commercially available ELISA Kit (AbCam ELISA Kit) according to the user's manual provided. […]

[2] = test system: old C57b1/6 mice; assay: Tidal volume by whole-body plethysmography in aged mice
Protocol: The experiments were performed in old C57b1/6 mice (28-30 weeks). Table 1 discloses the groups of mice used for the experimentation. C57BL/6 mice were bred and naturally aged in a pathogen-free colony. Mice were group-housed six per cage for the treatment regimen and maintained on a 12-hr light-dark schedule with ad libitum access to food and water. All experiments were designed according to the principles of animal use for gerontological research (Miller, R. A., & Nadon, N. L. (2000). Principles of animal use for gerontological research. Journals of Gerontology. Series A, Biological Sciences and Medical Sciences, 55, B117-B123) [table] The above test substances were administered to the mice for a period of 90 days. Rapamycin was used as a positive control. […] The respiratory muscle function in the study animals was assessed by estimating the Tidal Volume, Minute ventilation, Transdiaphragmatic pressure ([…]) and Respiratory rate. […] In the present study, ventilatory parameters were measured in awake mice during eupnoea (spontaneous breathing of room air) using a whole-body plethysmography system. […] Recordings were taken after 10 min of acclimatization and recorded for one hour. Recorded parameters included tidal volume and minute ventilation

[3] = test system: SIRT1; assay: SIRT1 ELISA in lung tissue homogenate of aged mice
Protocol: The experiments were performed in old C57b1/6 mice (28-30 weeks). Table 1 discloses the groups of mice used for the experimentation. C57BL/6 mice were bred and naturally aged in a pathogen-free colony. Mice were group-housed six per cage for the treatment regimen and maintained on a 12-hr light-dark schedule with ad libitum access to food and water. All experiments were designed according to the principles of animal use for gerontological research (Miller, R. A., & Nadon, N. L. (2000). Principles of animal use for gerontological research. Journals of Gerontology. Series A, Biological Sciences and Medical Sciences, 55, B117-B123) [table] The above test substances were administered to the mice for a period of 90 days. Rapamycin was used as a positive control. After 90 days of administration experiments were performed to assess the respiratory muscle function, anatomical changes, cellular senescence and immunological changes. A number of cellular mechanisms and alterations constitute the hallmarks of cellular senescence. These include a stable cell cycle arrest chromatin alteration & reorganization; Inhibition of Sirt-1. Inhibition of AMPK and Dysregulation of mTOR. Silencing information regulator 2 related enzyme 1 (sirtuin1, SIRT1) is an NAD+-dependent deacetylase, which is involved in the regulation of cellular senescence and aging. The expression of SIRT1 is diminished with aging in mice. […]

Q: With `O=C(/C=C/c1ccc(O)c(O)c1)O[C@H](Cc1ccc(O)c(O)c1)C(=O)O` [Rosmarinic acid] as the molecule, how does the expression of laminin [1] read?
A: The expression of laminin was “increased”.

Q: And the tidal volume ([2]; versus old mice control)?
A: Its tidal volume is “increased”.

Q: What about the “tidal volume, comparison between treatment groups” value ([2]; Rapamycin 8 mg/kg p.o. positive control) of the same molecule?
A: Its value is “better than control, and Rapamycin”.

Q: And the “expression of SIRT1” value [3]?
A: The value was “increased”.
